Laboratory results published in the OPERA property sets (Mansouri et al. 2018).

Conditions: not given
Cc1cc(Cl)cc2c1C(=O)/C(=C1/Sc3cc(Cl)cc(C)c3C1=O)S2 showed a log10 vapour pressure (mmHg) of -13.5. With CNC(=O)O/N=C/C(C)(C)S(C)=O (stereo not drawn) the log10 Koc (L/kg) was 0.56 and the log10 vapour pressure (mmHg) was -4. FC(F)(Cl)Br gave a boiling point of -3.7 °C, a log10 vapour pressure (mmHg) of 3.31 and a melting point of -160 °C. Clc1cc(Cl)c(Cl)c(-c2cc(Cl)c(Cl)cc2Cl)c1 showed a log10 Henry constant (atm·m³/mol) of -4.6. Compound CC1COc2ccccc2N1C(=O)C(Cl)Cl (stereo not drawn) has a log10 vapour pressure (mmHg) of -5.35 and a melting point of 108 °C. Work on CCCC(c1ccc(O)cc1)c1ccc(O)cc1 yielded a melting point of 137 °C. In the case of O=C(C1CCCCC1)N1CC(=O)N2CCc3ccccc3C2C1 (stereo not drawn), the melting point is reported as 136 °C. Nc1nc2nn[nH]c2c(=O)[nH]1 gave a melting point of 300 °C. Work on OCCOc1ccccc1 yielded a boiling point of 245 °C, a log10 vapour pressure (mmHg) of -2.15 and a melting point of 14 °C. For CCCCCCCCCCCCCOC(=O)c1ccccc1C(=O)OCCCCCCCCCCCCC, the ready biodegradability was “not readily biodegradable”. With CCOCCOCCO the boiling point was 196 °C, the log10 vapour pressure (mmHg) was -0.9 and the melting point was -76 °C. With Nc1ccc(C(=O)Oc2ccccc2)c(O)c1 the melting point was 153 °C. CC1=C(O)C(=O)[C@@H]2O[C@@H]2C1=O showed a melting point of 127 °C. CCCC=Cc1ccccc1 showed a boiling point of 217 °C. Compound O=C(O)CNC(CO)(CO)CO has a melting point of 187 °C. CCCCOC(=O)C(C)O (stereo not drawn) gave a boiling point of 186 °C, a log10 vapour pressure (mmHg) of -0.398 and a melting point of -28 °C. With CCCCCCCCCCCC(=O)Oc1c(Cl)c(Cl)c(Cl)c(Cl)c1Cl the ready biodegradability was “not readily biodegradable”. CCCCCCOC(=O)c1ccccc1C(=O)OCCCCCC gave a log10 Koc (L/kg) of 4.72, a log10 vapour pressure (mmHg) of -4.85 and a melting point of -58 °C. Work on CC(C)(C)c1cc(C(C)(C)c2ccc(O)c(C(C)(C)C)c2)ccc1O yielded a melting point of 114 °C. Work on N#Cc1c(F)c(F)cc(F)c1F yielded a melting point of 34 °C. Compound O=Cc1cc2c(cc1[N+](=O)[O-])OCO2 has a melting point of 93.5 °C. In the case of CCN1CN(CC)CN(CC)C1, the boiling point is reported as 208 °C, the melting point is reported as 70 °C and the ready biodegradability is reported as “readily biodegradable”. CNC(=O)c1cccnc1 showed a melting point of 104 °C. NC=S showed a melting point of 26.5 °C. CCCCOC(=O)C1=CC(=O)CC(C)(C)O1 gave a boiling point of 263 °C and a log10 vapour pressure (mmHg) of -3.52. For FC(F)(F)CCBr, the boiling point was 63.5 °C. CCCCCCCCC(=O)CCCCCCCC showed a boiling point of 252 °C and a melting point of 53 °C. In the case of C=CCN(CC=C)C(=O)CCl, the log10 Koc (L/kg) is reported as 1.3 and the log10 vapour pressure (mmHg) is reported as -2.03. CCCCOC(=O)c1ccc(O)cc1 showed a melting point of 68.5 °C. Work on O=C(Cl)c1cc([N+](=O)[O-])cc([N+](=O)[O-])c1 yielded a melting point of 74 °C. Cn1c(=O)c2[nH]cnc2n(C)c1=O showed a melting point of 273 °C. C1CCCCCCC1 showed a boiling point of 149 °C, a log10 vapour pressure (mmHg) of 0.741 and a melting point of 14.8 °C. COc1ccc(C=CC(=O)c2ccccc2)cc1 gave a melting point of 79 °C. Cn1cc[nH]c1=S showed a boiling point of 280 °C and a melting point of 146 °C. In the case of C=CCOC(=O)CC, the boiling point is reported as 124 °C. Work on CCC1(c2ccccc2)NC(=O)N(C)C1=O (stereo not drawn) yielded a melting point of 136 °C. In the case of O=C1CCCCCCCCCCC(=O)OCCO1, the melting point is reported as 18 °C. Compound Clc1cc2c(oc3cc(Cl)c(Cl)c(Cl)c32)c(Cl)c1Cl has a log10 Koa of 10.8. With C(CCOCC1CO1)COCC1CO1 (stereo not drawn) the boiling point was 266 °C and the ready biodegradability was “not readily biodegradable”. Work on CC(Cc1ccccc1)c1ccccc1 (stereo not drawn) yielded a boiling point of 280 °C and a melting point of 52 °C. Compound Clc1cc(Cl)c2oc3c(Cl)c(Cl)cc(Cl)c3c2c1 has a melting point of 204 °C. Compound CC12CCC(CC1=NO)C2(C)C (stereo not drawn) has a melting point of 118 °C. For CCC(=O)C1CCCCC1, the boiling point was 196 °C. With Nc1cccc2c1C(=O)c1cccc(N)c1C2=O the melting point was 319 °C. In the case of CCc1ccc2c(c1)CCCC2, the boiling point is reported as 244 °C and the melting point is reported as -70 °C. With CCCC(=O)C(C)CC (stereo not drawn) the boiling point was 154 °C. CCC1CCC(C)C1 (stereo not drawn) showed a log10 vapour pressure (mmHg) of 0.799. With Cc1cccc(C(C)(C)C)c1O the boiling point was 230 °C, the melting point was 31 °C and the ready biodegradability was “not readily biodegradable”. Cc1cc([N+](=O)[O-])ccc1O gave a melting point of 96 °C. For Cc1cc(C)c(N)cc1C, the boiling point was 234 °C, the log10 Henry constant (atm·m³/mol) was -5.61 and the log10 vapour pressure (mmHg) was -2.05. It also gave a melting point of 68 °C. Work on Clc1cc(Cl)c(Cl)cc1Cl yielded a boiling point of 244 °C, a log10 Henry constant (atm·m³/mol) of -3 and a log10 Koa of 5.63. It also gave a log10 Koc (L/kg) of 4.1, a log10 vapour pressure (mmHg) of -2.27 and a melting point of 140 °C. For the same compound, the ready biodegradability was “not readily biodegradable”. Compound C1=CC=CCCC=C1 has a boiling point of 146 °C. With CCCCCCCCCCCCCCCC[n+]1ccccc1.[Br-] the melting point was 63 °C. Compound CCC1CCCC1 has a boiling point of 104 °C, a log10 biodegradation half-life (days) of 1.18 and a log10 vapour pressure (mmHg) of 1.6. For the same compound, the melting point was -138 °C.

Same assay, conditions: fish
FC(F)(F)c1ccc(Cl)cc1Cl gave a log10 BCF of 3.37 and a log10 biotransformation half-life (days) of 1.81. O=P(OCC(Br)CBr)(OCC(Br)CBr)OCC(Br)CBr (stereo not drawn) gave a log10 BCF of 0.51. In the case of Clc1cc(Cl)c(Oc2cc(Cl)c(Cl)c(Cl)c2Cl)cc1Cl, the log10 biotransformation half-life (days) is reported as 1.97. Clc1cc2c(c(Cl)c1Cl)Oc1c(Cl)c(Cl)c(Cl)c(Cl)c1O2 showed a log10 BCF of 3.67 and a log10 biotransformation half-life (days) of 1.21. Work on Clc1cc(Cl)c(Cl)c(-c2cc(Cl)c(Cl)cc2Cl)c1 yielded a log10 biotransformation half-life (days) of 2.4. Work on ClC1C(Cl)C(Cl)C(Cl)C(Cl)C1Cl (stereo not drawn) yielded a log10 biotransformation half-life (days) of 1.49. With Clc1cc2c(oc3cc(Cl)c(Cl)c(Cl)c32)c(Cl)c1Cl the log10 BCF was 3.94 and the log10 biotransformation half-life (days) was 1. Clc1cc(Cl)c(Cl)cc1Cl gave a log10 BCF of 3.44 and a log10 biotransformation half-life (days) of 1.79.
